Results published in patent US8598157B2, “5-alkynyl-pyridines” (Boehringer Ingelheim International GmbH, priority 2011, dated 2013).

Legend:
MCF7 cells = assay: alamarBlue MCF7 cell assay (antiproliferative/cytotoxicity); assay type: cell-based; conditions: MCF7 human breast cancer cell line
Source text: (§1) The H460, MB453, U87, MCF7 and BT474 alamarBlue cell assays provide EC50 values indicative of the antiproliferative or cytotoxic effects of the compounds to respectively the H460 (human non small cell line cancer), MB-453 (breast cancer cell line), U87 (glioblastoma cell line), MCF7 (breast cancer cell line) and BT474 (breast cancer cell line). As known in the field, antiproliferative or cytotoxic effect against this cell lines would be expected to be indicative of activity in treating lung, breast and brain cancers. See R. Marone R et al. Biochim. Biophys. Acta. 2008 January; 1784(1):159-85. S. Yaguchi et al., J. Natl. Cancer Inst. 2006 Apr. 19; 98(8):545-56.
(§2) Method Type: Antiproliferative/Cytotoxicity
(§3) alamarBlue® is designed to provide a rapid and sensitive measure of cell proliferation and cytotoxicity in various human and animal cell lines. The assay is based on the reduction of alamarBlue in the reducing environment of living (metabolically active) cells. In the presence of added cytotoxic or antiproliferative compounds, the innate metabolic activity ceases.
(§4) AlamarBlue is soluble and stable in culture medium. Measurements are made fluorometrically by exciting at 530-560 nm and measuring emission at 590 nm. In reporting percent alamarBlue reduction by monitoring fluorescence, data are expressed as fluorescence emission intensity units as a function of time of incubation.
(§5) 3. Equipment • 96-well plates, flat bottom (Falcon, Cat. No.: 353072) • 96-well plates, U-shaped (Costar, Cat. No.: 3799) • CO2-Incubator • Microplate Reader, Spectramax Plus, Molecular Devices 4. Typical Procedure • Day 0: Seed 3000 BT-474 cells (IMDM/5% FCS, 1% NEAA, 1% Sodiumpyruvat) in 150 μl medium into a 96-well plate, flat bottom (include mediumblank). Incubate plates at 37° C. in a CO2 incubator overnight. • Day 1: Dilute compounds to a concentration 40 μM->1:3 in medium, 10 dilution steps, in 96-well plates. • Add 50 μl per well of each dilution (total volume per well 200 μl; final conc. of cpds: 10 μM->1:3). If required, test further dilutions. • All concentrations are tested in duplicates. • Controls: Cells w/o cpd. (+50 μl medium/DMSO). • Cells are incubated with compounds for 5-6 days. • Day 6 or 7: Add 25 μl of alamarBlue solution to each well and incubate for 8 hours at 37° C. Measure fluorescence by exciting at 530-560 nm and measuring emission at 590 nm. 5. Evaluation • Subtract average value for medium blank from sample readings • Calculate EC50 using GraphPad Prism (Fifty)

H460 cells = assay: alamarBlue H460 cell assay (antiproliferative/cytotoxicity); assay type: cell-based; conditions: NCI-H460; H460 human lung carcinoma cells
Source text: as §1, §2, §3, §4, §5

BT474 cells = assay: alamarBlue BT474 cell assay (antiproliferative/cytotoxicity); assay type: cell-based; conditions: BT-474 human breast cancer cell line
Source text: as §1, §2, §3, §4, §5

PI3Kalpha = PI3Kalpha (Homo sapiens (Human), UniProt P42336); assay: Inhibition of PI3Kalpha-induced PIP-2 phosphorylation (filter-binding assay); assay type: biochemical; conditions: 33P-ATP, p85alpha/His-p110alpha, read-out: IC50 PI3Kα
Sequence of PI3Kalpha (P42336 whole entry): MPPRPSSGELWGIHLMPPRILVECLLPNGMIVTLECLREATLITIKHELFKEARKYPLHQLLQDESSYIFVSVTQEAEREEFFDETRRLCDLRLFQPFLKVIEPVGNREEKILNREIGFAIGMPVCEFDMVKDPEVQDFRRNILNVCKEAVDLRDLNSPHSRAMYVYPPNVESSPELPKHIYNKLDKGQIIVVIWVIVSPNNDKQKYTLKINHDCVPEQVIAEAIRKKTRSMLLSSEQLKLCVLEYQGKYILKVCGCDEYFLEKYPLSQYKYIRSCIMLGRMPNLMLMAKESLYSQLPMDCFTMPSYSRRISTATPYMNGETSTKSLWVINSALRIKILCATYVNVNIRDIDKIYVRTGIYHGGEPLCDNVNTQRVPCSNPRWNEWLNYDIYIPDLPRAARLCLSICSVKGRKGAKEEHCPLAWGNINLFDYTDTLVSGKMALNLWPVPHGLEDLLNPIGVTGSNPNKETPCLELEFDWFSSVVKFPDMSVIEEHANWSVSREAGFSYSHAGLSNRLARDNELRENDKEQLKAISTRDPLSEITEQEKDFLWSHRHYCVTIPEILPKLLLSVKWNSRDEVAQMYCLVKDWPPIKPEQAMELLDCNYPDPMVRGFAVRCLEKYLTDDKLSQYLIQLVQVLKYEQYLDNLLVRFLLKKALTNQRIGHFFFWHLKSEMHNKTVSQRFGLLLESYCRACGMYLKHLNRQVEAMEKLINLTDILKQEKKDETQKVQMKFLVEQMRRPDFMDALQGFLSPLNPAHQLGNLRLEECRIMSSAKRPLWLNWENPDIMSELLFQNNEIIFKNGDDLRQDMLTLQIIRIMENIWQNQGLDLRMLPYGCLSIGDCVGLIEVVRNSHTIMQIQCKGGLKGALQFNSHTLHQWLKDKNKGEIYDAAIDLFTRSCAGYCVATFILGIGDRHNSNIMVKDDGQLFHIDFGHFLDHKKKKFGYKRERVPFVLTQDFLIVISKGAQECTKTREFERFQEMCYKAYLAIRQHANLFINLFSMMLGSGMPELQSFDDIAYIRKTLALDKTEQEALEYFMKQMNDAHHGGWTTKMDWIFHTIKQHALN
Source text: Inhibition of PI3Kalpha-Induced PIP-2 Phosphorylation
This PI3Kalpha assay provides an IC50 value indicative of the activity of the compounds to inhibit PI3 kinase alpha activity. Inhibition of PI3 kinase would be expected to be indicative of activity in treating conditions of excessive or anomalous cell proliferation, such as cancers. See also J. A. Engelman, Nature Reviews Cancer, 2009, 9, 550-562; A. Carnero, Expert Opin. Investig. Drugs, 2009, 18, 1265-1277 and P. Liu et al., Nature Reviews Drug Discovery, 2009, 8, 627-64.
Method Type: Filter-Binding-Assay
Aliquoted in desired amounts and stored at −80° C. Final assay concentration 25 ng/well • Phosphotyrosin PDGFRbeta-peptide H-CGG-pY-[…]-pY-VPMLDM-NH2 was synthesized by Jerini Peptide Technologies (JPT) and used in a final conc. of 1.7 μM (stock 100 μM prepared in Assay buffer with DTT, aliquoted in desired amounts and stored at −80° C.) • Cold ATP (from Sigma; A-7699), 100 μM stock solution in H2O, use 1 μM final concentration in assay • [33P]-ATP, 370 MBq/ml from Amersham (#AH9968), use 0.5 μCi/well (10 mCi/ml) • Clear 96-well plates from Greiner (#655 162) • Filter plates: Perkin Elmer UniFilter GF/B #6005177 • Microscint 0 (from Perkin Elmer, #6013611) 2. Assay Procedure
The substrate-containing lipid vesicles are dissolved to a concentration of 0.637 mg lipid blend/ml assay buffer (with BSA, freshly added) in 50 ml Falcon->keep on ice, followed by ultrasonication (pulse of 15 sec followed by a pause of 10 sec, 4×). Compounds are serially diluted in assay buffer+6% DMSO and […] of each dilution is added per well of a 96-well plate (compounds are tested in duplicates) and mixed with 30 μl of the lipid vesicles containing PDGFR-Peptide ([…]) and PI3K alpha (25 ng/well final). The mixture is then incubated for 20 minutes at room temperature. Subsequently, 20 μl of assay buffer containing […] cold ATP and 0.5 μCi/20 μl 33P-ATP are added. The plates are then incubated at room temperature for 120 minutes (shaking with 300 rpm).
The reaction mix is transferred onto filter plates using “filtermate harvester” from Packard: filter plates are rinsed with PBS, then the reaction mix is filtered onto the filter plate, washed 5 times with PBS and are allowed to dry for 30-60 minutes at 50° C.
The plate bottom is sealed with Perkin Elmer white adhesive foil and 25 μl/well Microscint( ) are added, the top is covered with transparent adhesive foil and the plate is measured with Wallac Trilux 1450 Microbeta Counter.
As positive control serve wells containing vehicle controls (1% DMSO in assay buffer), showing non-inhibited kinase activity (high values). Wells containing assay buffer instead of enzyme can serve as control for background activity (low values).
Calculate IC50 values using the Smiley program (based on GrapPad Prism)

MB453 cells = assay: alamarBlue MB453 cell assay (antiproliferative/cytotoxicity); assay type: cell-based; conditions: Homo sapiens; MDA MB 453 breast cancer cell line
Source text: as §1, §2, §3, §4, §5

U87 cells = assay: U87 cell assay (antiproliferative/cytotoxicity); assay type: cell-based; conditions: U-87MG human glioblastoma cells
Source text: as §1, §2, §3, §4, §5

SMILES | IC50 (PI3Kalpha) [nM] | EC50 (MCF7 cells) [nM] | EC50 (H460 cells) [nM] | EC50 (BT474 cells) [nM] | EC50 (MB453 cells) [nM] | EC50 (U87 cells) [nM]
Cc1ncc(C#Cc2c(C)ncnc2N2CCOCC2)cc1NS(=O)(=O)c1ccco1 [Example I-49, Furan-2-sulfonic acid [2-methyl-5-(4-methyl-6-morpholin-4-yl-pyrimidin-5-ylethynyl)-pyridin-3-yl]-amide] | 2 | 49 | 356 | 444 | 393 | 512
COc1ncc(C#Cc2c(C)ncnc2N2CCOCC2)cc1NS(=O)(=O)c1ccc(Cl)s1 [Example I-85, 5-Chloro-N-[2-methoxy-5-(4-methyl-6-morpholin-4-yl-pyrimidin-5-ylethynyl)-pyridin-3-yl]-thiophene-2-sulfonamide] | 0.38 |  | 47 | 34 | 40 | 64
CCc1ncnc(N2CCC(OC)CC2)c1C#Cc1cnc(C)c(NS(C)(=O)=O)c1 [Example I-45, N-{5-[4-Ethyl-6-(4-methoxy-piperidin-1-yl)-pyrimidin-5-ylethynyl]-2-methyl-pyridin-3-yl}-methanesulfonamide] | 4 | 62 | 141 | 284 |  | 
Cc1ncc(C#Cc2c(C)ncnc2NC(C)C)cc1NS(=O)(=O)c1ccccc1 [Example I-59, N-[5-(4-Isopropylamino-6-methyl-pyrimidin-5-ylethynyl)-2-methyl-pyridin-3-yl]-benzenesulfonamide] | 6 |  | 723 | 5000 | 1930 | 1000
COCCN(C)c1ncnc(C)c1C#Cc1cnc(C)c(NS(=O)(=O)c2ccccc2)c1 [Example I-71, N-(5-{4-[(2-Methoxy-ethyl)-methyl-amino]-6-methyl-pyrimidin-5-ylethynyl}-2-methyl-pyridin-3-yl)-benzenesulfonamide] | 5 |  | 1620 | 1500 | 2100 | 1190
CCc1ncnc(N2CCC(O)CC2)c1C#Cc1cnc(C)c(NS(C)(=O)=O)c1 [Example I-46, N-{5-[4-Ethyl-6-(4-hydroxy-piperidin-1-yl)-pyrimidin-5-ylethynyl]-2-methyl-pyridin-3-yl}-methanesulfonamide] |  | 397 | 880 | 1270 |  | 
Cc1ncc(C#Cc2c(C)ncnc2N2CCOCC2)cc1NS(=O)(=O)c1cnn(C)c1 [Example I-51, 1-Methyl-1H-pyrazole-4-sulfonic acid [2-methyl-5-(4-methyl-6-morpholin-4-yl-pyrimidin-5-ylethynyl)-pyridin-3-yl]-amide] |  | 12 | 196 | 311 | 199 | 315
Cc1ncnc(N2CCOCC2)c1C#Cc1cncc(NS(C)(=O)=O)c1 [Example I-24, N-[5-(4-Methyl-6-morpholin-4-yl-pyrimidin-5-ylethynyl)-pyridin-3-yl]-methanesulfonamide] | 4 | 1110 |  | 2360 |  | 
COc1ncc(C#Cc2c(C)ncnc2N2CCOCC2)cc1NS(=O)(=O)c1ccccc1OC(F)(F)F [Example I-82, 2-Trifluoromethoxy-N-[2-methoxy-5-(4-methyl-6-morpholin-4-yl-pyrimidin-5-ylethynyl)-pyridin-3-yl]-benzenesulfonamide] | 0.5 |  | 24 | 25 | 27 | 50
CCc1nc(N)nc(N2CCC(OC)CC2)c1C#Cc1cnc(C)c(NS(C)(=O)=O)c1 [Example I-34, N-{5-[2-Amino-4-ethyl-6-(4-methoxy-piperidin-1-yl)-pyrimidin-5-ylethynyl]-2-methyl-pyridin-3-yl}-methanesulfonamide] | 2 | 74 |  | 433 |  | 

More lines, main results first:

IC50 (PI3Kalpha) [nM] | SMILES | EC50 (MCF7 cells) [nM] | EC50 (H460 cells) [nM] | EC50 (BT474 cells) [nM] | EC50 (MB453 cells) [nM] | EC50 (U87 cells) [nM]
0.53 | COc1ncc(C#Cc2c(C)ncnc2N2CCOCC2)cc1NS(=O)(=O)c1ccc(C)o1 [Example I-89, N-[2-methoxy-5-[2-(4-methyl-6-morpholin-4-ylpyrimidin-5-yl)ethynyl]pyridin-3-yl]-5-methylfuran-2-sulfonamide] |  | 26 | 63 | 38 | 42
0.55 | COc1ncc(C#Cc2c(C)ncnc2N2CCOCC2)cc1NS(=O)(=O)c1cnn(C)c1 [Example I-88, N-[2-methoxy-5-[2-(4-methyl-6-morpholin-4-ylpyrimidin-5-yl)ethynyl]pyridin-3-yl]-1-methylpyrazole-4-sulfonamide] |  | 21 | 62 | 8 | 27
0.45 | COc1ncc(C#Cc2c(C)ncnc2N2CCOCC2)cc1NS(=O)(=O)c1ccnn1C [Example I-87, N-[2-methoxy-5-[2-(4-methyl-6-morpholin-4-ylpyrimidin-5-yl)ethynyl]pyridin-3-yl]-2-methylpyrazole-3-sulfonamide] |  | 30 | 20 | 15 | 54
0.64 | COc1ncc(C#Cc2c(C)ncnc2N2CCOCC2)cc1NS(C)(=O)=O [Example I-81, N-[2-methoxy-5-(4-methyl-6-morpholin-4-yl-pyrimidin-5-ylethynyl)-pyridin-3-yl]-methylsulfonamide] |  | 181 | 76 | 233 | 510
0.39 | COc1ncc(C#Cc2c(C)ncnc2N2CCOCC2)cc1NS(=O)(=O)c1cccs1 [Example I-86, N-[2-Methoxy-5-(4-methyl-6-morpholin-4-yl-pyrimidin-5-ylethynyl)-pyridin-3-yl]-thiophene-2-sulfonamide] |  | 10 | 12 | 14 | 42
0.3 | COc1ncc(C#Cc2c(C)ncnc2N2CCOCC2)cc1NS(=O)(=O)c1ccc(Cl)cc1 [Example I-84, 4-Chloro-N-[2-methoxy-5-(4-methyl-6-morpholin-4-yl-pyrimidin-5-ylethynyl)-pyridin-3-yl]-benzenesulfonamide] |  | 41 | 48 | 49 | 24
